Converted amounts (≈) assume the structure as drawn.
Columns and labels:
Assay type in all cases: functional
[1] = test system: Mycobacterium tuberculosis; assay: Antibacterial activity against Mycobacterium tuberculosis H160 by dilution method; conditions: Mycobacterium tuberculosis, H160; read-out: MIC
[2] = test system: Mycobacterium tuberculosis; assay: Antibacterial activity against Mycobacterium tuberculosis H37Rv by dilution method; conditions: Mycobacterium tuberculosis, H37Rv; read-out: MIC
Escherichia coli = assay: Antibacterial activity against Escherichia coli ATCC 25922
Staphylococcus aureus [3] = assay: Antibacterial activity against Staphylococcus aureus SA87 isolate; conditions: Staphylococcus aureus; read-out: MIC
Candida albicans = assay: Antifungal activity against Candida albicans by dilution method
Enterococcus faecalis = assay: Antibacterial activity against Enterococcus faecalis ATCC 29212
Bacillus subtilis = assay: Antibacterial activity against Bacillus subtilis ATCC 6633; conditions: Bacillus subtilis, ATCC 6633; read-out: MIC
Staphylococcus aureus [4] = assay: Antibacterial activity against Staphylococcus aureus SA52 isolate
Staphylococcus aureus [5] = assay: Antibacterial activity against Staphylococcus aureus SA85 isolate
Kluyveromyces marxianus = assay: Antifungal activity against Candida pseudotropicalis by dilution method
Staphylococcus aureus [6] = assay: Antibacterial activity against Staphylococcus aureus ATCC 25923
Staphylococcus aureus [7] = assay: Antibacterial activity against Staphylococcus aureus ATCC 105487
Pseudomonas aeruginosa = assay: Antibacterial activity against Pseudomonas aeruginosa ATCC 27753
[8] = test system: Mycobacterium tuberculosis; assay: Antibacterial activity against Mycobacterium tuberculosis H190 by dilution method

Compound | MIC [1] [µg/mL] | MIC [2] [µg/mL] | MIC (Escherichia coli) [µg/mL] | MIC (Staphylococcus aureus [3]) [µg/mL] | MIC (Candida albicans) [µg/mL] | MIC (Enterococcus faecalis) [µg/mL] | MIC (Bacillus subtilis) [µg/mL] | MIC (Staphylococcus aureus [4]) [µg/mL] | MIC (Staphylococcus aureus [5]) [µg/mL] | MIC (Kluyveromyces marxianus) [µg/mL] | MIC (Staphylococcus aureus [6]) [µg/mL] | MIC (Staphylococcus aureus [7]) [µg/mL] | MIC (Pseudomonas aeruginosa) [µg/mL] | MIC [8] [µg/mL]
CCCCCCCC/C=C\CCCCCCCC(=O)OC(COC(=O)CCCCCCCCC)CO[C@@H]1O[C@H](CO)[C@@H](O)[C@H](O)[C@H]1O (some centres not stated) | > 128 | > 128 | > 128 | > 128 | > 128 | > 128 | 32 (≈ 47.6 µM) | > 128 | 128 (≈ 190 µM) | > 128 | 8 (≈ 11.9 µM) | > 128 | > 128 | > 128
CCCCCCCC/C=C\CCCCCCCC(=O)OCC(CO[C@@H]1O[C@H](CO)[C@H](O)[C@H](O)[C@H]1O)OC(=O)CCCCCCC/C=C\CCCCCCCC (some centres not stated) | > 128 | > 128 | > 128 | > 128 | > 128 | > 128 | > 128 | > 128 | > 128 | > 128 | > 128 | > 128 | > 128 | > 128
CCCCCCCCCCCCCCCCCC(=O)OCC(CO[C@@H]1O[C@H](CO)[C@H](O)[C@H](O)[C@H]1O)OC(=O)CCCCCCCCCCCCCCCCC (some centres not stated) | > 128 | > 128 | > 128 | > 128 | > 128 | > 128 | > 128 | > 128 | > 128 | > 128 | > 128 | > 128 | > 128 | > 128
